These results are taken from BindingDB's records for doi:10.1021/jm00018a012 (Pfizer, 1995).

Broadly, the pIC50 is the IC50 on a negative log10 scale, so that one unit is a factor of ten. Higher therefore signals a low IC50.

The structures appear in SMILES notation. pIC50: −log10 of the molar value.

In this assay the target is Platelet-activating factor receptor (Oryctolagus cuniculus). The assay can be described thus: In vitro antagonist activity against platelet activating factor (PAF) receptor, using washed rabbit platelets.
In turn, `Cc1nc2cnccc2n1-c1ccc(C2=Nc3c(C4CCCCC4)nn4c3N(CCCC4)C(=O)C2)cc1` [3-Cyclohexyl-6-[4-(2-methyl-imidazo[4,5-c]pyridin-1-yl)-phenyl]-1,2,5,9-tetraaza-tricyclo[7.4.1.0*4,14*]tetradeca-2,4(14),5-trien-8-one] showed a pIC50 of 9.40.

As for `Cc1nc2cnccc2n1-c1ccc(C2=Nc3cc(Cl)c(Cl)cc3-n3ccnc3C2)cc1` [8,9-Dichloro-5-[4-(2-methyl-imidazo[4,5-c]pyridin-1-yl)-phenyl]-4H-3,6,10b-triaza-benzo[e]azulene], the pIC50 is 8.77.

Consider `Cc1cc2c(cc1C)-n1ccnc1CC(c1ccc(-n3c(C)nc4cnccc43)cc1)=N2` [8,9-Dimethyl-5-[4-(2-methyl-imidazo[4,5-c]pyridin-1-yl)-phenyl]-4H-3,6,10b-triaza-benzo[e]azulene], for which the pIC50 is 8.89. The pIC50 values of the last two compounds are within 0.2 log units of each other.

In turn, `Cc1nc2cnccc2n1-c1ccc(C2=Nc3c(-c4ccccc4)nn(C)c3N(C)C(=O)C2)cc1` [1,8-Dimethyl-5-[4-(2-methyl-imidazo[4,5-c]pyridin-1-yl)-phenyl]-3-phenyl-6,8-dihydro-1H-pyrazolo[3,4-b][1,4]diazepin-7-one] showed a pIC50 of 9.30.

Compound `Cc1nc2cnccc2n1-c1ccc(C2=Nc3c(-c4ccccc4)nn(C)c3NC(=O)C2)cc1` [1-Methyl-5-[4-(2-methyl-imidazo[4,5-c]pyridin-1-yl)-phenyl]-3-phenyl-6,8-dihydro-1H-pyrazolo[3,4-b][1,4]diazepin-7-one] had a pIC50 of 9.22.

`Cc1nc2cnccc2n1-c1ccc(C2=Nc3c(C(C)C)nn(C)c3N(C)C(=O)C2)cc1` [3-Isopropyl-1,8-dimethyl-5-[4-(2-methyl-imidazo[4,5-c]pyridin-1-yl)-phenyl]-6,8-dihydro-1H-pyrazolo[3,4-b][1,4]diazepin-7-one] had a negative logarithm of the IC50 (pIC50) of 8.46.

`Cc1cc2c(cc1C)-n1c(n[nH]c1=O)CC(c1ccc(-n3c(C)nc4cnccc43)cc1)=N2` [8,9-Dimethyl-5-[4-(2-methyl-imidazo[4,5-c]pyridin-1-yl)-phenyl]-2,4-dihydro-2,3,6,10b-tetraaza-benzo[e]azulen-1-one]: the pIC50 is 7.26.

`Cc1nn(C)c2c1N=C(c1ccc(-n3c(C)nc4cnccc43)cc1)CC(=O)N2` [1,3-Dimethyl-5-[4-(2-methyl-imidazo[4,5-c]pyridin-1-yl)-phenyl]-6,8-dihydro-1H-pyrazolo[3,4-b][1,4]diazepin-7-one] gave a pIC50 of 7.59.

`Cc1nn(C)c2c1N=C(c1ccc(-n3c(C)nc4cnccc43)cc1)CC(=O)N2C` [1,3,8-Trimethyl-5-[4-(2-methyl-imidazo[4,5-c]pyridin-1-yl)-phenyl]-6,8-dihydro-1H-pyrazolo[3,4-b][1,4]diazepin-7-one] gave a pIC50 of 7.77.

For `Cc1nc2cnccc2n1-c1ccc(C2=Nc3c(-c4cccnc4)nn(C)c3N(C)C(=O)C2)cc1` [1,8-Dimethyl-5-[4-(2-methyl-imidazo[4,5-c]pyridin-1-yl)-phenyl]-3-pyridin-3-yl-6,8-dihydro-1H-pyrazolo[3,4-b][1,4]diazepin-7-one], the pIC50 is 8.62.

Compound `Cc1cnc2n1-c1cc(Cl)c(Cl)cc1N=C(c1ccc(-n3c(C)nc4cnccc43)cc1)C2` [8,9-Dichloro-1-methyl-5-[4-(2-methyl-imidazo[4,5-c]pyridin-1-yl)-phenyl]-4H-3,6,10b-triaza-benzo[e]azulene] had a pIC50 of 8.92.

In the case of `Cc1cn2c(n1)CC(c1ccc(-n3c(C)nc4cnccc43)cc1)=Nc1cc(Cl)c(Cl)cc1-2` [8,9-Dichloro-2-methyl-5-[4-(2-methyl-imidazo[4,5-c]pyridin-1-yl)-phenyl]-4H-3,6,10b-triaza-benzo[e]azulene], the pIC50 is 9.52.

`Cc1nc2cnccc2n1-c1ccc(C2=Nc3c(C4CCCCC4)nn(C)c3N(C)C(=O)C2)cc1` [3-Cyclohexyl-1,8-dimethyl-5-[4-(2-methyl-imidazo[4,5-c]pyridin-1-yl)-phenyl]-6,8-dihydro-1H-pyrazolo[3,4-b][1,4]diazepin-7-one] showed a negative logarithm of the IC50 (pIC50) of 9.15.

For the compound `Cc1nc2cnccc2n1-c1ccc(C2=Nc3c(CO)nn(C)c3N(C)C(=O)C2)cc1` [3-Hydroxymethyl-1,8-dimethyl-5-[4-(2-methyl-imidazo[4,5-c]pyridin-1-yl)-phenyl]-6,8-dihydro-1H-pyrazolo[3,4-b][1,4]diazepin-7-one], the pIC50 was 7.85.

For the compound `Cc1nc2cnccc2n1-c1ccc(C2=Nc3c(-c4ccccn4)nn(C)c3N(C)C(=O)C2)cc1` [1,8-Dimethyl-5-[4-(2-methyl-imidazo[4,5-c]pyridin-1-yl)-phenyl]-3-pyridin-2-yl-6,8-dihydro-1H-pyrazolo[3,4-b][1,4]diazepin-7-one], the pIC50 was 7.85.

Consider `Cc1nc2cnccc2n1-c1ccc(C2=Nc3c(c(-c4ccccc4)nn3C)NC(=O)C2)cc1` [1-Methyl-7-[4-(2-methyl-imidazo[4,5-c]pyridin-1-yl)-phenyl]-3-phenyl-4,6-dihydro-1H-pyrazolo[3,4-b][1,4]diazepin-5-one], for which the pIC50 was 8.57.

As for `Cc1cc2c(cc1C)-n1c(C)nnc1CC(c1ccc(-n3c(C)nc4cnccc43)cc1)=N2` [1,8,9-Trimethyl-5-[4-(2-methyl-imidazo[4,5-c]pyridin-1-yl)-phenyl]-4H-2,3,6,10b-tetraaza-benzo[e]azulene], the pIC50 is 8.62.

Regarding `Cc1cc(C)c2c(n1)N=C(c1ccc(-n3c(C)nc4cnccc43)cc1)CC(=O)N2` [7,9-Dimethyl-4-[4-(2-methyl-imidazo[4,5-c]pyridin-1-yl)-phenyl]-1,3-dihydro-pyrido[3,4-b][1,4]diazepin-2-one], the pIC50 was 7.68.

`Cc1nc2cnccc2n1-c1ccc(C2=Nc3c(-c4ccncc4)nn(C)c3N(C)C(=O)C2)cc1` [1,8-Dimethyl-5-[4-(2-methyl-imidazo[4,5-c]pyridin-1-yl)-phenyl]-3-pyridin-4-yl-6,8-dihydro-1H-pyrazolo[3,4-b][1,4]diazepin-7-one] gave a pIC50 of 8.28.

Turning to `Cc1nc2cnccc2n1-c1ccc(C2=Nc3c(COCC(C)C)nn(C)c3N(C)C(=O)C2)cc1` [3-Isobutoxymethyl-1,8-dimethyl-5-[4-(2-methyl-imidazo[4,5-c]pyridin-1-yl)-phenyl]-6,8-dihydro-1H-pyrazolo[3,4-b][1,4]diazepin-7-one], the pIC50 is 9.10.

As for `Cc1nn(C)c2c1NC(=O)CC(c1ccc(-n3c(C)nc4cnccc43)cc1)=N2` [1,3-Dimethyl-7-[4-(2-methyl-imidazo[4,5-c]pyridin-1-yl)-phenyl]-4,6-dihydro-1H-pyrazolo[3,4-b][1,4]diazepin-5-one], the pIC50 is 9.00. The pIC50 values of the last two compounds are within 0.2 log units of each other.

On to `Cc1cc2c(cc1C)-n1cnnc1CC(c1ccc(-n3c(C)nc4cnccc43)cc1)=N2` [8,9-Dimethyl-5-[4-(2-methyl-imidazo[4,5-c]pyridin-1-yl)-phenyl]-4H-2,3,6,10b-tetraaza-benzo[e]azulene], for which the pIC50 is 8.64.

Consider `Cc1nc2cnccc2n1-c1ccc(C2=Nc3c(-c4cccs4)nn(C)c3N(C)C(=O)C2)cc1` [1,8-Dimethyl-5-[4-(2-methyl-imidazo[4,5-c]pyridin-1-yl)-phenyl]-3-thiophen-2-yl-6,8-dihydro-1H-pyrazolo[3,4-b][1,4]diazepin-7-one], for which the pIC50 is 8.82.

The compound `Cc1cc2c(cc1C)-n1nnnc1CC(c1ccc(-n3c(C)nc4cnccc43)cc1)=N2` [8,9-Dimethyl-5-[4-(2-methyl-imidazo[4,5-c]pyridin-1-yl)-phenyl]-4H-1,2,3,6,10b-pentaaza-benzo[e]azulene] showed a pIC50 of 7.96.
